# Tests used:
# [1] = tested on: NOS-1 (Osteosarcoma); test: Bliss excess, mean over the matrix (fraction); higher = more synergy
# Outline: (§1)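 Bliss excess equals the observed combination effect minus the expected value EA + EB − EA·EB, where EA and EB are the effects of each agent alone. Combination Emax is the second-highest inhibition within the matrix. Inhibition was scaled from CellTiter-Glo 2.0 luminescence, with 0 set by vehicle wells and 1 by blank wells, after 72 hours of two-drug dosing of cells plated in 1536-well plates.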
# [2] = tested on: HuP-T4 (Pancreatic Carcinoma); test: as above
# Outline: as §1
# [3] = tested on: B-CPAP (Thyroid Gland Carcinoma); test: as above
# Outline: as §1
# [4] = tested on: Calu-3 (Lung Adenocarcinoma); test: as above
# Outline: as §1
# [5] = tested on: Daoy (Other Solid Carcinomas); test: as above
# Outline: as §1
# [6] = tested on: KELLY (Neuroblastoma); test: as above
# Outline: as §1
# [7] = tested on: NOS-1 (Osteosarcoma); test: combination Emax (second highest fraction inhibited in the dose matrix, 72 h); higher = more inhibition; extreme values may be limits of the assay
# Outline: as §1
# [8] = tested on: LB831-BLC (Bladder Carcinoma); test: as above
# Outline: as §1
# [9] = tested on: HCC-78 (Lung Adenocarcinoma); test: as above
# Outline: as §1
# [10] = tested on: HOS (Osteosarcoma); test: as above
# Outline: as §1
# [11] = tested on: DoTc2-4510 (Cervical Carcinoma); test: as above
# Outline: as §1
# [12] = tested on: Calu-3 (Lung Adenocarcinoma); test: as above
# Outline: as §1
# [13] = tested on: KYSE-520 (Esophageal Squamous Cell Carcinoma); test: as above
# Outline: as §1
# [14] = tested on: KELLY (Neuroblastoma); test: as above
# Outline: as §1
# [15] = tested on: ME-1 (Acute Myeloid Leukemia); test: as above
# Outline: as §1
# [16] = tested on: MDA-MB-361 (Breast Carcinoma); test: as above
# Outline: as §1
# [17] = tested on: SK-ES-1 (Ewing's Sarcoma); test: as above
# Outline: as §1
# [18] = tested on: TE-9 (Esophageal Squamous Cell Carcinoma); test: as above
# Outline: as §1
# [19] = tested on: MFE-296 (Endometrial Carcinoma); test: as above
# Outline: as §1
# [20] = tested on: HCC1806 (Breast Carcinoma); test: as above
# Outline: as §1
SMILES,Bliss excess [1],Bliss excess [2],Bliss excess [3],Bliss excess [4],Bliss excess [5],Bliss excess [6],combination Emax [7],combination Emax [8],combination Emax [9],combination Emax [10],combination Emax [11],combination Emax [12],combination Emax [13],combination Emax [14],combination Emax [15],combination Emax [16],combination Emax [17],combination Emax [18],combination Emax [19],combination Emax [20]
"CN(C)CCCOc1ccc(-c2ccc3ncc4c(c3c2)n(C2CCOCC2)c(=O)n4C)cn1 [AZD0156] + C=CCn1c(=O)c2cnc(Nc3ccc(N4CCN(C)CC4)cc3)nc2n1-c1cccc(C(C)(C)O)n1 [AZD1775] (first compound max 1 µM, partner max 1 µM)",-0.0113,-0.022,-0.0255,-0.0378,-0.0151,-0.0002,0.247,0.388,0.313,0.24,0.473,0.0731,0.32,1,0.413,0.858,0.903,0.231,0.258,0.901
"CN(C)CCCOc1ccc(-c2ccc3ncc4c(c3c2)n(C2CCOCC2)c(=O)n4C)cn1 [AZD0156] + CCN(CCO)CCCOc1ccc2c(Nc3cc(CC(=O)Nc4cccc(F)c4)[nH]n3)ncnc2c1 [AZD2811] (first compound max 1 µM, 7x7, partner max 1 µM)",-0.0114,-0.005,-0.0224,-0.0295,0.0069,0.0099,0.119,0.0797,0.159,0.0916,0.186,0.061,0.224,0.684,0.2,0.456,0.952,0.0784,0.0192,0.124
"CN(C)CCCOc1ccc(-c2ccc3ncc4c(c3c2)n(C2CCOCC2)c(=O)n4C)cn1 [AZD0156] + C[C@@H]1COCCN1C2=NC(=NC(=C2)C3(CC3)[S@](=N)(=O)C)C4=C5C=CNC5=NC=C4 [AZD6738] (first compound max 1 µM, 7x7, partner max 10 µM)",-0.0241,0.0118,0.027,-0.0205,0.0287,0.0044,0.255,0.23,0.613,0.706,0.811,0.297,0.603,0.987,0.394,0.9,0.855,0.354,0.388,0.937
"CN(C)CCCOc1ccc(-c2ccc3ncc4c(c3c2)n(C2CCOCC2)c(=O)n4C)cn1 [AZD0156] + O=C(c1cc(Cc2n[nH]c(=O)c3ccccc23)ccc1F)N1CCN(C(=O)C2CC2)CC1 [Olaparib] (first compound max 3 µM, partner max 3 µM)",0.0594,0.125,0.0785,-0.0153,0.0714,0.0009,0.328,0.26,0.448,0.241,0.206,0.184,0.324,0.607,0.224,0.384,0.804,0.353,0.228,0.479
"C=CCn1c(=O)c2cnc(Nc3ccc(N4CCN(C)CC4)cc3)nc2n1-c1cccc(C(C)(C)O)n1 [AZD1775] + C1CN(CCC1(C(=O)N[C@@H](CCO)C2=CC=C(C=C2)Cl)N)C3=NC=NC4=C3C=CN4 [Capivasertib] (first compound max 3 µM, partner max 3 µM)",0.0118,-0.0779,0.0065,-0.0761,-0.0474,-0.0393,0.606,0.75,0.626,0.831,0.723,0.466,0.598,1,0.685,0.851,0.883,0.816,0.561,0.933
"C=CCn1c(=O)c2cnc(Nc3ccc(N4CCN(C)CC4)cc3)nc2n1-c1cccc(C(C)(C)O)n1 [AZD1775] + C[C@@H]1COCCN1C2=NC(=NC(=C2)C3(CC3)[S@](=N)(=O)C)C4=C5C=CNC5=NC=C4 [AZD6738] (first compound max 1 µM, partner max 10 µM)",0.0735,0.0849,0.0499,-0.0181,0.0863,-0.0161,0.622,0.72,0.756,0.911,0.751,0.301,0.661,1,0.51,0.922,0.926,0.67,0.659,0.961
"C=CCn1c(=O)c2cnc(Nc3ccc(N4CCN(C)CC4)cc3)nc2n1-c1cccc(C(C)(C)O)n1 [AZD1775] + O=C(c1cc(Cc2n[nH]c(=O)c3ccccc23)ccc1F)N1CCN(C(=O)C2CC2)CC1 [Olaparib] (first compound max 1 µM, partner max 10 µM)",0.0285,0.0075,0.0393,-0.0243,0.044,0.0038,0.376,0.607,0.377,0.417,0.458,0.173,0.399,0.988,0.455,0.861,0.954,0.307,0.279,0.836
"COc1nnc2ccc(N3CCC(c4ccc(OCCN5CCN(C)C(=O)[C@H]5C)cc4)CC3)nn12 [AZD5153] + CN(CC[C@H](CSC1=CC=CC=C1)NC2=C(C=C(C=C2)S(=O)(=O)NC(=O)C3=CC=C(C=C3)N4CCC(CC4)[C@H](C5=CC=CC=C5C6=CC=C(C=C6)Cl)O)S(=O)(=O)C(F)(F)F)CCO [AZD4320] (first compound max 1 µM, 7x7, partner max 1 µM)",0.044,0.0267,0.0375,,0.113,,0.936,,,,,,0.58,,,0.814,0.871,,0.31,0.588
"Cc1c2c(nn1C)CSCc1cc(n(C)n1)CSc1cc(c3ccccc3c1)OCCCc1c(C(=O)O)n(C)c3c-2c(Cl)ccc13 [AZD5991] + C1CN(CCC1(C(=O)N[C@@H](CCO)C2=CC=C(C=C2)Cl)N)C3=NC=NC4=C3C=CN4 [Capivasertib] (first compound max 1 µM, 7x7, partner max 3 µM)",0.0511,0.0085,-0.0249,0.0134,0.0248,0.0246,0.79,0.352,0.228,0.242,0.355,0.182,0.433,0.676,0.772,0.718,0.854,,0.825,0.528
"Cc1c2c(nn1C)CSCc1cc(n(C)n1)CSc1cc(c3ccccc3c1)OCCCc1c(C(=O)O)n(C)c3c-2c(Cl)ccc13 [AZD5991] + C=CCn1c(=O)c2cnc(Nc3ccc(N4CCN(C)CC4)cc3)nc2n1-c1cccc(C(C)(C)O)n1 [AZD1775] (first compound max 1 µM, partner max 1 µM)",,-0.0039,-0.053,0.0194,0.0375,0.0322,0.982,0.519,0.331,0.432,0.523,0.197,,1,0.793,0.899,0.985,0.366,0.585,0.972
"C[C@@H]1COCCN1c1cc(C2([S@](C)(=N)=O)CC2)nc(-c2ccnc3[nH]ccc23)n1 [AZD6738] + O=C(c1cc(Cc2n[nH]c(=O)c3ccccc23)ccc1F)N1CCN(C(=O)C2CC2)CC1 [Olaparib] (first compound max 10 µM, 7x7, partner max 10 µM)",0.0554,-0.0037,0.0364,0.0139,0.0116,0.0227,0.326,0.373,0.638,0.685,0.7,0.193,,0.897,0.538,0.836,0.933,0.436,0.391,0.89
"CC(=O)c1c(C)c2cnc(Nc3ccc(N4CCNCC4)cn3)nc2n(C2CCCC2)c1=O [Palbociclib] + CN(CC[C@H](CSC1=CC=CC=C1)NC2=C(C=C(C=C2)S(=O)(=O)NC(=O)C3=CC=C(C=C3)N4CCC(CC4)[C@H](C5=CC=CC=C5C6=CC=C(C=C6)Cl)O)S(=O)(=O)C(F)(F)F)CCO [AZD4320] (first compound max 10 µM, 7x7, partner max 1 µM)",0.0414,-0.0026,-0.0241,,0.0118,,0.952,,,,,,0.477,,,0.185,0.956,,0.293,0.442
"CCc1c2c(nc3ccc(O)cc13)-c1cc3c(c(=O)n1C2)COC(=O)[C@]3(O)CC [SN-38] + O=C(c1cc(Cc2n[nH]c(=O)c3ccccc23)ccc1F)N1CCN(C(=O)C2CC2)CC1 [Olaparib] (first compound max 0.3 µM, 7x7, partner max 10 µM)",-0.0251,0.0913,0.0148,0.0909,0.119,0.0404,0.134,0.85,0.898,0.96,0.988,0.398,,0.884,0.497,,1,0.458,0.595,0.974
"C[C@@H](c1ccc2nccn2c1)n1nnc2ncc(-c3cnn(C)c3)nc21 [Savolitinib] + CN(CC[C@H](CSC1=CC=CC=C1)NC2=C(C=C(C=C2)S(=O)(=O)NC(=O)C3=CC=C(C=C3)N4CCC(CC4)[C@H](C5=CC=CC=C5C6=CC=C(C=C6)Cl)O)S(=O)(=O)C(F)(F)F)CCO [AZD4320] (first compound max 1 µM, 7x7, partner max 1 µM)",-0.0137,-0.0544,0.0041,,-0.0547,,0.506,,,,,,0.2,,,0.114,0.758,,0.2,0.436

# Source: the supplement of paper PMC11061612
